We go through 36 compounds from US10730877B2, “4-Azaindole compounds” (BRISTOL-MYERS SQUIBB COMPANY, priority 2017, dated 2020).

Where two headings read alike, the source gives them in different places.

The target of one assay is human TLR7 (Homo sapiens (Human), UniProt Q9NYK1). Nature of the assay: TLR7 inhibition reporter assay (HEK-Blue cells, SEAP reporter, gardiquimod stimulation). The assay is classed as cell-based. The conditions noted are these: gardiquimod 7.5 μM. A general note: A reporter such as luciferase makes a cellular process visible.
Chain of human TLR7 (Q9NYK1 27-1049): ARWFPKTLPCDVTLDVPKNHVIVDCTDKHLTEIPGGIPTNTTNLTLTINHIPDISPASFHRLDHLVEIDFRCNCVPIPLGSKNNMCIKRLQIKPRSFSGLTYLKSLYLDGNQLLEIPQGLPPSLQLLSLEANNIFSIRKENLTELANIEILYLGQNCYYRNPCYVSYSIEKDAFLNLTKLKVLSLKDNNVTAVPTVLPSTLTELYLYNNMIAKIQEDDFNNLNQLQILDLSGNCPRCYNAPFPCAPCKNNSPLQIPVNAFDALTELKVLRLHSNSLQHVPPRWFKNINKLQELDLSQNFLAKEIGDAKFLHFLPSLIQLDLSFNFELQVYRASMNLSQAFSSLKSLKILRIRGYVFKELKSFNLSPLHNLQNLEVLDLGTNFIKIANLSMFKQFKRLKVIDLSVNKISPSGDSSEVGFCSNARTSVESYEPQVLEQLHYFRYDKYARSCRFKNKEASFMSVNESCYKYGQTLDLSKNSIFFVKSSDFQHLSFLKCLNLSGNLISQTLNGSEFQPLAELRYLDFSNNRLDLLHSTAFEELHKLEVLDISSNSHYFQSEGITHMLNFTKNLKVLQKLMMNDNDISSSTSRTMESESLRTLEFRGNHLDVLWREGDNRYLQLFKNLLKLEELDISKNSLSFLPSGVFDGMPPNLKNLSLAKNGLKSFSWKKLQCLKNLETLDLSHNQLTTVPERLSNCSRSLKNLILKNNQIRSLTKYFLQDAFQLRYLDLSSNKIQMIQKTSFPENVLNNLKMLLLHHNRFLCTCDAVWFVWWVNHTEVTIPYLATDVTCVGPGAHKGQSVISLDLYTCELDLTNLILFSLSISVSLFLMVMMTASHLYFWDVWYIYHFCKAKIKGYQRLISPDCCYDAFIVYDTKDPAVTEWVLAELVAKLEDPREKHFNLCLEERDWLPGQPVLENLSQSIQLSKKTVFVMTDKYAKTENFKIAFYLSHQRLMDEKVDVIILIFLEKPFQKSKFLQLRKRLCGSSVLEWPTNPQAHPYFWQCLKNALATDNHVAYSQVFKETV
Another assay deals with human TLR8 (Homo sapiens (Human), UniProt Q9NR97). The experiment in a line: TLR8 inhibition reporter assay (HEK-Blue cells, SEAP reporter, R848 stimulation).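 Also: SEAP under an IFN-β minimal promoter carrying five NF-κB and AP-1 sites, 22 h at 37 °C, doses 0.05 nM–50 µM, inhibition scaled between agonist-plus-DMSO and reference-inhibitor wells.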 Particulars: read-out: TLR8 IC50, R848 15.9 μM.
Chain of human TLR8 (Q9NR97 27-1041): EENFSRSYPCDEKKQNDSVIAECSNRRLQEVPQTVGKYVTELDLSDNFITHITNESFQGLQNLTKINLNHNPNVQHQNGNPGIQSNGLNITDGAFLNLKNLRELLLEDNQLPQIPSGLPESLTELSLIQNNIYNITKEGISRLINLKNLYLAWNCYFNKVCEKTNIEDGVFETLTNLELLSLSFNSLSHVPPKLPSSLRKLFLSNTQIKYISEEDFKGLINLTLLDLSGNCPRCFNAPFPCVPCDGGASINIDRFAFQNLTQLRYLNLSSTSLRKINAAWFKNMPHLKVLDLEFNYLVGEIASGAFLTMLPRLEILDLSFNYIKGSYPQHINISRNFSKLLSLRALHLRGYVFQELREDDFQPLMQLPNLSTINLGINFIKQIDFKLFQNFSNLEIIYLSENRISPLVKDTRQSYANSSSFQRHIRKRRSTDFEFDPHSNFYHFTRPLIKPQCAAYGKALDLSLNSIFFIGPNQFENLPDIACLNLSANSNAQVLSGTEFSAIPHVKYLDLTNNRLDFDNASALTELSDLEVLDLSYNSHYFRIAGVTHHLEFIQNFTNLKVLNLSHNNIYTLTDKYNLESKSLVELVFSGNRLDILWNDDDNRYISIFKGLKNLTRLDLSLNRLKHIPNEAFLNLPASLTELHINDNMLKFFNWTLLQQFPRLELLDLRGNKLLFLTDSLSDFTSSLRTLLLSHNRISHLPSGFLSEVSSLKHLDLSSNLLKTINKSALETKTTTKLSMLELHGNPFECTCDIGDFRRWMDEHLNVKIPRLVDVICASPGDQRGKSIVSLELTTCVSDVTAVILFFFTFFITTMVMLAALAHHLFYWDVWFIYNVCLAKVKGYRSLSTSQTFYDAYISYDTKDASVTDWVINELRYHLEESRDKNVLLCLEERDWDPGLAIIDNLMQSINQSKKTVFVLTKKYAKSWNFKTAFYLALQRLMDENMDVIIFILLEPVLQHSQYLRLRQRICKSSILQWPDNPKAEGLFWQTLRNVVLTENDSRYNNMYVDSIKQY
The target of another assay is human TLR9 (Homo sapiens (Human), UniProt Q9NR96). The experiment in a line: TLR9 inhibition reporter assay (HEK-Blue cells, SEAP reporter, ODN2006 stimulation).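 Also: SEAP driven by IFN-β minimal promoter with five NF-κB and AP-1 sites, compounds 0.05 nM–50 µM in DMSO, 22 h, inhibition scaled between agonist plus DMSO and reference inhibitor wells.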
Chain of human TLR9 (Q9NR96 26-1032): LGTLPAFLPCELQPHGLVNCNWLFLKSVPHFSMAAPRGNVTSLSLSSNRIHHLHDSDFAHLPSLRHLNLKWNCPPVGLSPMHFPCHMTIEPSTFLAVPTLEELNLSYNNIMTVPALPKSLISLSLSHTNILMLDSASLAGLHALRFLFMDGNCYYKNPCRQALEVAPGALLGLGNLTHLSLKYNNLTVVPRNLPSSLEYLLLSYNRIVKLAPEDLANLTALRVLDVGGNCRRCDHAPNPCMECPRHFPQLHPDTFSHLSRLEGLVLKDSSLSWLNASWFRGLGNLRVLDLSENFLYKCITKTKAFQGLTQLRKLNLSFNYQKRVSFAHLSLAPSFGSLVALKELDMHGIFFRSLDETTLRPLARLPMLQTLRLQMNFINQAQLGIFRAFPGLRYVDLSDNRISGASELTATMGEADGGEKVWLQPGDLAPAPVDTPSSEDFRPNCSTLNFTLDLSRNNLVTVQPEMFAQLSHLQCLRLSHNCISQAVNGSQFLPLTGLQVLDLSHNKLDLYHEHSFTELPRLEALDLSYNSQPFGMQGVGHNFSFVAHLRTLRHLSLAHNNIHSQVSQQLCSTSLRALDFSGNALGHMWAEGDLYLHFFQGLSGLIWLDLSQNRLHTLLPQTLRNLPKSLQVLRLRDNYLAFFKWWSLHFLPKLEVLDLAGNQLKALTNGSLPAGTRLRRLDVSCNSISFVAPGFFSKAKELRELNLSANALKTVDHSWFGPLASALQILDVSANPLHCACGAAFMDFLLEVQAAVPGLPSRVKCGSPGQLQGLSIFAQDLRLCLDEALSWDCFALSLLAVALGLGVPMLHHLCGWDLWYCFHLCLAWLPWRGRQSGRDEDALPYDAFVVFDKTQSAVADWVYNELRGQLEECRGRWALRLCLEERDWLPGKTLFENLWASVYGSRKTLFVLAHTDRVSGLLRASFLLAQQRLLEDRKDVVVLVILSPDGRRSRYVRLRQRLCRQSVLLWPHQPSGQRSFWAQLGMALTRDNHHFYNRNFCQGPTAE
[1] abbreviates: HEK-Blue cells overexpressing human TLR7, SEAP reporter.
Where [2] appears, read: HEK-Blue cells overexpressing human TLR8, SEAP reporter.
Where [3] appears, read: read-out: TLR9 IC50, HEK-Blue cells overexpressing human TLR9, SEAP reporter, ODN2006 5 nM.
The mark [4] stands for this setting: read-out: TLR9 IC50, HEK-Blue cells, ODN2006 5 nM.

Protocol for human TLR7: (§1) HEK-Blue™-cells (Invivogen) overexpressing human TLR7, TLR8 or TLR9 receptors were used for screening inhibitors of these receptors using an inducible SEAP (secreted embryonic alkaline phosphatase) reporter gene under the control of the IFN-β minimal promoter fused to five NF-κB and AP-1-binding sites. Briefly, cells are seeded into Greiner 384 well plates (15000 cells per well for TLR7, 20,000 for TLR8 and 25,000 for TLR9) and then treated with test compounds in DMSO to yield a final dose response concentration range of 0.05 nM-50 μM. After a 30 minute compound pre-treatment at room temperature, the cells are then stimulated with a TLR7 ligand (gardiquimod at a final concentration of 7.5 μM), TLR8 ligand (R848 at a final concentration of 15.9 μM) or TLR9 ligand (ODN2006 at a final concentration of 5 nM) to activate NF-κB and AP-1 which induce the production of SEAP. After a 22 hour incubation at 37° C., 5% CO2, SEAP levels are determined with the addition of HEK-Blue™ Detection reagent (Invivogen), a cell culture medium that allows for detection of SEAP, according to manufacturer's specifications.
Protocol for human TLR8: as §1
Protocol for human TLR9: as §1

Consider `Cc1c(-c2[nH]c3ccc(N4C[C@H]5C[C@@H]4CN5CCC(N)=O)nc3c2C(C)C)cn2ncnc2c1C` [Example 763], for which the values for the IC50 on human TLR7 (setting [1]), at human TLR8 (setting [2]) and on human TLR9 (setting [3]) were 3.8 nM, 2.6 nM and 4580 nM, respectively.

With `Cc1c(-c2[nH]c3ccc(N4C[C@@H]5C[C@H]4CN5C(=O)CN(C)C)nc3c2C(C)C)cn2ncnc2c1C` [Example 784], the IC50 (usually the concentration that inhibits the measured activity by half) amounted to 2.9 nM against human TLR7 (setting [1]), 9.4 nM at human TLR8 (setting [2]) and 4530 nM on human TLR9 (setting [3]).

For `Cc1c(-c2[nH]c3ccc(N4C[C@H]5CCC[C@@H](C4)N5CCS(C)(=O)=O)nc3c2C(C)C)cn2ncnc2c1C` [Example 751], the IC50 on human TLR7 (setting [1]) was 13 nM; at human TLR8 (setting [2]), 7.3 nM; on human TLR9 (setting [3]) it was 26000 nM.

`Cc1cc(-c2[nH]c3ccc(C4CCN(CC(N)=O)CC4)nc3c2C(C)C)cn2ncnc12` [Example 559]: the IC50 on human TLR7 (setting [1]) was determined as 0.72 nM; on human TLR8 (setting [2]), 4.6 nM; at human TLR9 (setting [3]) it was 4920 nM.

As to `Cc1c(-c2[nH]c3ccc(C4CC5(C4)CN(C)C5)nc3c2C(C)C)cn2ncnc2c1C` [Example 1022], the IC50 at human TLR7 (HEK-Blue cells) worked out at 0.91 nM; at human TLR8 (HEK-Blue cells) it was 1.9 nM; on human TLR9 (setting [4]) it was 3650 nM.

On to `CC(C)c1c(-c2cn(CC#N)c3ncccc23)[nH]c2ccc(C3CCC(NC4CCOCC4)CC3)nc12` (centres unmarked) [Example 274], for which the IC50 is 8.5 nM at human TLR7 (setting [1]), 3.7 nM on human TLR8 (setting [2]) and 474 nM on human TLR9 (setting [3]).

On to `Cc1c(-c2[nH]c3ccc(N4C[C@H]5C[C@@H]4CN5CC(N)=O)nc3c2C(C)C)cn2ncnc2c1C` [Example 762], for which the IC50 against human TLR7 (setting [1]) was found to be 3.8 nM; at human TLR8 (setting [2]) it was 8.6 nM; on human TLR9 (setting [3]), 18300 nM.

In the case of `Cc1c(-c2[nH]c3ccc(N4C[C@@H]5C[C@H]4CN5CCS(C)(=O)=O)nc3c2C(C)C)cn2ncnc2c1C` [Example 777], the IC50 on human TLR7 (setting [1]) turned out to be 9.2 nM; at human TLR8 (setting [2]) it was 7.4 nM; on human TLR9 (setting [3]), 14800 nM.

On to `Cc1c(-c2[nH]c3ccc(N4C[C@@H]5C[C@H]4CN5C4CCS(=O)(=O)CC4)nc3c2C(C)C)cn2ncnc2c1C` [Example 781], for which the IC50 turned out to be 11 nM against human TLR7 (setting [1]), 18 nM on human TLR8 (setting [2]) and 14400 nM at human TLR9 (setting [3]).

For the compound `Cc1c(-c2[nH]c3ccc(N4C[C@H]5C[C@@H]4CN5CCS(C)(=O)=O)nc3c2C(C)C)cn2ncnc2c1C` [Example 764], the IC50 against human TLR7 (setting [1]) came out at 1.9 nM; at human TLR8 (setting [2]) it was 2.8 nM; at human TLR9 (setting [3]), 14400 nM.

Consider `Cc1c(-c2[nH]c3ccc(N4C[C@H]5C[C@@H]4CN5CCC(=O)N(C)C)nc3c2C(C)C)cn2ncnc2c1C` [Example 767], for which the IC50 against human TLR7 (setting [1]) was found to be 5.4 nM; at human TLR8 (setting [2]), 2.9 nM; on human TLR9 (setting [3]), 8300 nM.

With `Cc1c(-c2[nH]c3ccc(N4C[C@@H]5C[C@H]4CN5Cc4cn(C)nn4)nc3c2C(C)C)cn2ncnc2c1C` [Example 787], the IC50 on human TLR7 (setting [1]) was determined as 9.4 nM; on human TLR8 (setting [2]), 4.9 nM; at human TLR9 (setting [3]) it was 12300 nM.

For `CCCN(CCC)C1CCC(Oc2ccc3[nH]c(-c4cc(OC)c5ncnn5c4)c(C(C)C)c3n2)CC1` (centres unmarked) [Example 605, 4-((3-isopropyl-2-(8-methoxy-[1,2,4]triazolo[1,5-a]pyridin-6-yl)-1H-pyrrolo[3,2-b]pyridin-5-yl)oxy)-N,N-dipropylcyclohexan-1-amine], the IC50 against human TLR7 (setting [1]) came to 13 nM; against human TLR9, 4240 nM.

In the case of `Cc1c(-c2[nH]c3ccc(N4C[C@@H]5C[C@H]4CN5CC(N)=O)nc3c2C(C)C)cn2ncnc2c1C` [Example 774], the values for the half-maximal inhibitory concentration (IC50) against human TLR7 (setting [1]), at human TLR8 (setting [2]) and at human TLR9 (setting [3]) were 3.7 nM, 5.7 nM and 18600 nM, respectively.

Consider `Cc1c(-c2[nH]c3ccc(N4C[C@@H]5C[C@H]4CN5CCCS(C)(=O)=O)nc3c2C(C)C)cn2ncnc2c1C` [Example 778], for which the values for the IC50 against human TLR7 (setting [1]), at human TLR8 (setting [2]) and on human TLR9 (setting [3]) were 2.7 nM, 2.3 nM and 7910 nM, respectively.

Consider `Cc1c(-c2[nH]c3ccc(C4CC5(C4)CN(C(C)C)C5)nc3c2C(C)C)cn2ncnc2c1C` [Example 1023], for which the concentration for half-maximal inhibition (IC50) was 10 nM at human TLR7 (HEK-Blue cells), 3.6 nM at human TLR8 (HEK-Blue cells) and 6940 nM on human TLR9 (setting [4]).

As to `Cc1c(-c2[nH]c3ccc(N4C[C@H]5C[C@@H]4CN5C4CCS(=O)(=O)CC4)nc3c2C(C)C)cn2ncnc2c1C` [Example 770], the results for the IC50 at human TLR7 (setting [1]), at human TLR8 (setting [2]) and at human TLR9 (setting [3]) were 11 nM, 24 nM and 18200 nM, respectively.

In the case of `Cc1c(-c2[nH]c3ccc(N4CCC(N(C)Cc5ncccn5)CC4)nc3c2C(C)C)cn2cnnc2c1C` [Example 78], the IC50 amounted to 3.7 nM against human TLR7 (setting [1]), 10 nM on human TLR8 (setting [2]) and 3170 nM on human TLR9 (setting [3]).

On to `Cc1c(-c2[nH]c3ccc(N4[C@@H]5CC[C@H]4CN(CCC(N)=O)C5)nc3c2C(C)C)cn2ncnc2c1C` [Example 749], for which the half-maximal inhibitory concentration (IC50) on human TLR7 (setting [1]) was 2.9 nM; on human TLR8 (setting [2]), 2.6 nM; at human TLR9 (setting [3]) it was 14900 nM.

On to `Cc1c(-c2[nH]c3ccc(N4C[C@@H]5C[C@H]4CN5CCC(N)=O)nc3c2C(C)C)cn2ncnc2c1C` [Example 775], for which the IC50 came to 3.8 nM on human TLR7 (setting [1]), 4.4 nM on human TLR8 (setting [2]) and 8450 nM at human TLR9 (setting [3]).

On to `Cc1c(-c2[nH]c3ccc(N4C[C@@H](C)N(CCCS(C)(=O)=O)C[C@@H]4C)nc3c2C(C)C)cn2ncnc2c1C` [Example 846], for which the figures for the IC50 at human TLR7 (HEK-Blue cells), on human TLR8 (HEK-Blue cells) and on human TLR9 (setting [4]) were 0.55 nM, 1.2 nM and 22600 nM, respectively.

Take `Cc1c(-c2[nH]c3ccc(N4C[C@@H]5C[C@H]4CN5C4CCOCC4)nc3c2C(C)C)cn2ncnc2c1C` [Example 780]: the results for the half-maximal inhibitory concentration (IC50) against human TLR7 (setting [1]), on human TLR8 (setting [2]) and on human TLR9 (setting [3]) were 1.9 nM, 5.4 nM and 5220 nM, respectively.

Take `Cc1c(-c2[nH]c3ccc(N4C[C@H]5C[C@@H]4CN5C(C)C)nc3c2C(C)C)cn2ncnc2c1C` [Example 786]: the concentration for half-maximal inhibition (IC50) on human TLR7 (setting [1]) came to 7.7 nM; at human TLR8 (setting [2]), 12 nM; at human TLR9 (setting [3]), 14700 nM.

Turning to `COc1cc(-c2[nH]c3ccc(CCC4CN(Cc5c[nH]nn5)C4)nc3c2C(C)C)cn2ncnc12` [Example 688], the half-maximal inhibitory concentration (IC50) at human TLR7 (setting [1]) came out at 8.4 nM; on human TLR8 (setting [2]), 23 nM; at human TLR9 (setting [3]), 177 nM.

Consider `Cc1c(-c2[nH]c3ccc(N4C[C@H]5CCC[C@@H](C4)N5C(=O)CN(C)C)nc3c2C(C)C)cn2ncnc2c1C` [Example 750], for which the half-maximal inhibitory concentration (IC50) at human TLR7 (setting [1]) came out at 1.2 nM; at human TLR8 (setting [2]), 3.7 nM; on human TLR9 (setting [3]), 6140 nM.

With `Cc1c(-c2[nH]c3ccc(N4C[C@@H]5C[C@H]4CN5CCC(=O)N(C)C)nc3c2C(C)C)cn2ncnc2c1C` [Example 776], the figures for the half-maximal inhibitory concentration (IC50) at human TLR7 (setting [1]), at human TLR8 (setting [2]) and at human TLR9 (setting [3]) were 6 nM, 5.3 nM and 13100 nM, respectively.

As for `Cc1c(-c2[nH]c3ccc(N4C[C@@H]5C[C@H]4CN5C4COC4)nc3c2C(C)C)cn2ncnc2c1C` [Example 779], the results for the IC50 on human TLR7 (setting [1]), on human TLR8 (setting [2]) and on human TLR9 (setting [3]) were 7.3 nM, 11 nM and 34500 nM, respectively.

Regarding `Cc1c(-c2[nH]c3ccc(N4C[C@H]5C[C@@H]4CN5CC#N)nc3c2C(C)C)cn2ncnc2c1C` [Example 766], the IC50 against human TLR7 (setting [1]) is 0.86 nM; on human TLR8 (setting [2]), 1.2 nM; at human TLR9 (setting [3]) it was 3510 nM.

`Cc1c(-c2[nH]c3ccc(N4C[C@H]5C[C@@H]4CN5C4COC4)nc3c2C(C)C)cn2ncnc2c1C` [Example 768]: the IC50 on human TLR7 (setting [1]) turned out to be 6.4 nM; on human TLR8 (setting [2]), 9.6 nM; on human TLR9 (setting [3]), 21000 nM.

Take `Cc1c(-c2[nH]c3ccc(N4C[C@H]5C[C@@H]4CN5C(=O)CCN(C)C)nc3c2C(C)C)cn2ncnc2c1C` [Example 773]: the IC50 against human TLR7 (setting [1]) was 3 nM; on human TLR8 (setting [2]) it was 4.6 nM; at human TLR9 (setting [3]), 2710 nM.

As to `Cc1c(-c2[nH]c3ccc(N4CCN(C(=O)CN(C)C)[C@H](C)C4)nc3c2C(C)C)cn2ncnc2c1C` [Example 849], the IC50 against human TLR7 (HEK-Blue cells) worked out at 0.53 nM; on human TLR8 (HEK-Blue cells) it was 1.6 nM; at human TLR9 (setting [4]) it was 8120 nM.

Take `Cc1c(-c2[nH]c3ccc(N4C[C@@H]5C[C@H]4CN5C(C)C)nc3c2C(C)C)cn2ncnc2c1C` [Example 783]: the 50% inhibitory concentration (IC50) on human TLR7 (setting [1]) was 1.8 nM; at human TLR8 (setting [2]), 3.9 nM; at human TLR9 (setting [3]) it was 8380 nM.

Take `CCN(CCS(C)(=O)=O)C1CCC(c2ccc3[nH]c(-c4cn5ncnc5c(C)c4C)c(C(C)C)c3n2)CC1` (centres unmarked) [Example 460]: the results for the IC50 at human TLR7 (setting [1]), on human TLR8 (setting [2]) and on human TLR9 (setting [3]) were 0.88 nM, 0.79 nM and 2060 nM, respectively.

Take `Cc1c(-c2[nH]c3ccc(N4C[C@H]5C[C@@H]4CN5CCCS(C)(=O)=O)nc3c2C(C)C)cn2ncnc2c1C` [Example 765]: the IC50 was 5.6 nM on human TLR7 (setting [1]), 3.5 nM on human TLR8 (setting [2]) and 10300 nM at human TLR9 (setting [3]).

For `CC(C)c1c(-c2cn(CCS(C)(=O)=O)c3ncccc23)[nH]c2ccc(C3CCC(NC4CCOCC4)CC3)nc12` (centres unmarked) [Example 271], the half-maximal inhibitory concentration (IC50) came to 120 nM against human TLR7 (setting [1]), 40 nM on human TLR8 (setting [2]) and 228 nM on human TLR9 (setting [3]).

For `Cc1c(-c2[nH]c3ccc(N4C[C@@H]5C[C@H]4CN5C(=O)CCN(C)C)nc3c2C(C)C)cn2ncnc2c1C` [Example 785], the IC50 against human TLR7 (setting [1]) worked out at 8 nM; at human TLR8 (setting [2]), 13 nM; at human TLR9 (setting [3]) it was 4680 nM.
